According to US9624228B2, “Inhibitors of ERK and methods of use” (KURA ONCOLOGY, INC., priority 2013, dated 2017):

Target: ERK2 enzyme (Homo sapiens (Human), UniProt P28482)
Assay: Inhibition assay of ERK (Z'-LYTE kinase assay, Ser/Thr 3 peptide substrate)
Type: biochemical
Details: 100 μM ATP
[1] = In vitro, ERK2 enzyme 0.47 ng/μL

Sequence of ERK2 enzyme (P28482 whole entry): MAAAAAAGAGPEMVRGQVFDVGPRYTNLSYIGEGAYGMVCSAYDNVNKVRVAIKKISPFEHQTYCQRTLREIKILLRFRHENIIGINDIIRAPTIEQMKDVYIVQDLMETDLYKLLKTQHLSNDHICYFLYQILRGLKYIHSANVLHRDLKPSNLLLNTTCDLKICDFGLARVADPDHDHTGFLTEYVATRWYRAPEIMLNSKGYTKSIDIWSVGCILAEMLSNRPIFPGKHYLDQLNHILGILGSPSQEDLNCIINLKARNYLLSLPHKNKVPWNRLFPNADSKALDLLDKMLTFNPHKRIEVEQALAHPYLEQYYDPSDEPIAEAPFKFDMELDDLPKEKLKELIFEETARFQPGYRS

IC50 (In vitro ERK2 enzyme) [nM]	IC50 [1] [nM]	Compound
< 50	–	CCC(c1ccccc1)c1cc2cc3c(-c4ccnc(C)c4)n[nH]c3cc2[nH]c1=O (centres unmarked) [Compound 64]
< 50	–	O=C1Nc2cc3[nH]nc(-c4ccnnc4)c3cc2CN1Cc1cccc(C(F)(F)F)c1 [Compound 124]
< 50	–	CCC(=O)NCCCN1Cc2cc3c(-c4cnc(OC)nc4)n[nH]c3cc2NC1=O [Compound 105]
< 50	–	COc1ccc(-c2n[nH]c3cc4c(cc23)CN(Cc2ccc(F)cc2F)C(=O)N4)cn1 [Compound 87]
< 50	–	COc1ncc(-c2n[nH]c3cc4c(cc23)CN(Cc2cc(F)cc(F)c2)C(=O)N4)cn1 [Compound 88]
–	50 to 250	COc1ccc(-c2n[nH]c3cc4[nH]c(=O)c(C5CCCN(Cc6ccccc6)C5)cc4cc23)cn1 (centres unmarked) [Compound 367]
< 50	–	Cc1cc(-c2n[nH]c3cc4c(cc23)CN([C@@H]2CCCN(Cc3cncnc3)C2)C(=O)N4)ccn1 [Compound 166]
–	< 50	Cc1cc(-c2n[nH]c3cc4c(cc23)CN([C@@H]2CCCN(Cc3cccs3)C2)C(=O)N4)ccn1 [Compound 254]
< 50	–	Cc1cc(-c2n[nH]c3cc4c(cc23)CN(Cc2cscn2)C(=O)N4)ccn1 [Compound 47]
–	< 50	Cc1cc(-c2n[nH]c3cc4c(cc23)CN([C@@H]2CCCN(Cc3ccc(C)s3)C2)C(=O)N4)ccn1 [Compound 245]
–	50 to 250	Cc1cc(-c2n[nH]c3cc4c(cc23)CN(CC2CCCN(Cc3ccccc3)C2)C(=O)N4)ccn1 (centres unmarked) [Compound 208]
–	< 50	O=C1Nc2cc3[nH]nc(-c4ccncc4)c3cc2CN1[C@@H]1CN(CC(F)(F)F)C[C@H]1c1ccccc1 [Compound 342]
< 50	–	O=C1Nc2cc3[nH]nc(-c4ccc5nncn5c4)c3cc2CN1Cc1cccc(Cl)c1 [Compound 59]
–	50 to 250	Cc1cc(-c2n[nH]c3cc4c(cc23)CN([C@H]2CN(C(C)C)C[C@@H]2c2ccccc2)C(=O)N4)ccn1 [Compound 296]
250 to 1000	–	COc1ncc(-c2n[nH]c3cc4c(cc23)CN(CC2CCNCC2)C(=O)N4)cn1 [Compound 81]
50 to 250	–	COc1ncc(-c2n[nH]c3cc4c(cc23)CCN(Cc2ccc(F)cc2)C(=O)N4)cn1 [Compound 130]
50 to 250	–	Cc1cc(-c2n[nH]c3cc4c(cc23)CN([C@@H]2CCN(Cc3c(F)cccc3F)C2)C(=O)N4)ccn1 [Compound 147]
< 50	–	Cc1cc(-c2n[nH]c3cc4c(cc23)CN(CCNCc2ccccc2)C(=O)N4)ccn1 [Compound 149]
–	< 50	Cc1cc(-c2n[nH]c3cc4c(cc23)CN([C@H](C)c2ccccc2)C(=O)N4)cc(C)n1 [Compound 377]
–	< 50	Cc1cc(-c2n[nH]c3cc4c(cc23)CN(Cc2nc(C)cs2)C(=O)N4)ccn1 [Compound 246]
–	< 50	Cn1cc(-c2n[nH]c3cc4c(cc23)CN([C@@H]2CCCN(Cc3cccs3)C2)C(=O)N4)cn1 [Compound 298]
< 50	–	CS(=O)(=O)c1ccc(-c2n[nH]c3cc4c(cc23)CN(Cc2cccc(Cl)c2)C(=O)N4)cc1 [Compound 89]
< 50	–	COc1ccc(-c2n[nH]c3cc4c(cc23)CN(CCc2cccc(Cl)c2)C(=O)N4)cn1 [Compound 85]
–	< 50	Cc1cc(-c2n[nH]c3cc4c(cc23)CN(C(C)c2nc(C)c(C)s2)C(=O)N4)ccn1 (centres unmarked) [Compound 286]
–	< 50	Cc1cc(-c2n[nH]c3cc4c(cc23)CN(CC2CCC2)C(=O)N4)ccn1 [Compound 253]
< 50	–	Cc1cc(-c2n[nH]c3cc4c(cc23)CN([C@@H]2CCC[C@H](NCc3ccccc3)C2)C(=O)N4)ccn1 [Compound 177]
–	< 50	COc1ncc(-c2n[nH]c3cc4c(cc23)CN([C@@H]2CCCN(Cc3ccc(F)cc3F)C2)C(=O)N4)cn1 [Compound 280]
–	< 50	Cc1ncc(-c2n[nH]c3cc4c(cc23)CN([C@@H]2CN(CC(F)(F)F)C[C@H]2c2ccccc2)C(=O)N4)cn1 [Compound 349]
50 to 250	–	Cc1cc(-c2n[nH]c3cc4[nH]c(=O)n(Cc5ccc(F)c(Cl)c5)c(=O)c4cc23)ccn1 [Compound 15]
